Laboratory results: ChEMBL document CHEMBL1143478, “Conformationally restricted anti-plasmodial chalcones” (Bioorg Med Chem Lett, 2005)
In brackets after ≈: the same amount, converted by molar mass.

System: Plasmodium falciparum
Assay: In vitro antimalarial activity against Plasmodium falciparum 3D7
Type: functional, organism-based

Row | IC50 [µg/mL] | Structure (SMILES)
1 | 7.6 (≈ 31.9 µM) | COc1ccccc1/C=C/C(=O)c1ccccc1
2 | 13.3 (≈ 44.9 µM) | COc1ccc(C(=O)C2=Cc3ccc(OC)cc3OC2)cc1
3 | 10 (≈ 30.2 µM) | COc1ccc(Br)cc1/C=C/C(=O)c1ccc(C)cc1
4 | 11 (≈ 39 µM) | COc1cccc(/C=C/C(=O)c2ccccc2C)c1OC
5 | 6 (≈ 20.1 µM) | COc1ccc(C(=O)/C=C/c2ccc(OC)cc2OC)cc1
6 | > 100 | COc1ccc(C(=O)C2=C(c3ccc(OC)cc3)CCC2)cc1
7 | 8.9 (≈ 33.2 µM) | COc1ccc(/C=C/C(=O)c2ccc(OC)cc2)cc1 [4,4'-DIMETHOXYCHALCONE]
8 | 2.2 (≈ 6.5 µM) | C=CC(C)(C)c1cc(/C=C/C(=O)c2ccc(O)cc2)c(OC)cc1O [LICOAGROCHACONE A]

The next lines start with the compound.

Row | Structure (SMILES) | IC50 [µg/mL]
9 | COc1ccc(Br)cc1/C=C/C(=O)c1ccccc1C | 9.3 (≈ 28.1 µM)
10 | Cc1ccccc1C(=O)C1=Cc2cc(Br)ccc2OC1 | 13.5 (≈ 41 µM)
11 | COc1cccc2c1OCC(C(=O)c1ccccc1C)=C2 | 15.1 (≈ 53.9 µM)
12 | O=C(C1=Cc2ccccc2OC1)c1ccccc1 | 4.7 (≈ 19.9 µM)
13 | Cc1ccc(C(=O)C2=Cc3cc(Br)ccc3OC2)cc1 | 8.6 (≈ 26.1 µM)
14 | O=C(C1=C(c2ccccc2)CCC1)c1ccccc1 | 35 (≈ 141 µM)
15 | O=C(/C=C/c1ccccc1)c1ccccc1 [CHALCONE] | 6.7 (≈ 32.2 µM)
